# Test results reported in patent US6890736B1, “Methods for producing proteins in cultured cells” (Immunex Corporation, priority 2002, dated 2005).
# Columns and labels:
# [1] = Example 1: cell number (hemocytometer) and viability (trypan blue); format: cell-based, Chinese hamster; settings: Chinese hamster, 34° C.
# Protocol: (§1) The following experiment was designed to test whether decitabine can induce the production of a protein, in this case a recombinant soluble form of the human interleukin 1 receptor type II (IL-1-R-II), at either 31° C. or 34° C. Soluble versions of IL-1R-II and methods for producing it are described in U.S. Pat. No. 5,767,064. DNA encoding a soluble form of the human IL-1R-II was inserted into pG3.6, which is described in Morris et al. ((1998), Cytotechnology 28:9-17). This construct was used to transfect CHO cells to produce cell lines, including 25H9, that produce IL-1R-II protein.
# (§2) About 2×10^6 cells of cell line 25H9 were inoculated into 30 milliliters of serum-free medium and incubated at the temperatures indicated in Table 1 in vented shake flasks. At the times indicated in Table 1, samples were taken from each flask to determine IL-1R-II titer, cell number, and cell viability. IL-1R-II protein titer was determined by ELISA assay. Cell number was determined by counting cells in a hemocytometer. Cell viability was determined by trypan blue staining and counting stained cells in a hemocytometer. Cumulative viable cell density (CVCD) is the area under the curve of a plot of the viable cell density versus time (in units of cells/ml/day). Productivity (pg of IL-1R-II/cell/day) was determined by dividing the protein titer on a particular day by the CVCD on the same day. Cells were fed with amino acids on days 2 and 5, and dextrose was added periodically in order to maintain levels above 2.0 g/L. All samples were done in duplicate, and the data shown is an average value.
# [2] = tested on: cell line 25H9 (CHO cells); assay: as above; format: cell-based, Chinese hamster
# Protocol: as §1, §2
# [3] = 31° C., 1 μM decitabine, day 10
# [4] = 31° C., 5 μM decitabine, day 10
# [5] = 31° C., 10 μM decitabine, day 0
# [6] = 31° C., 10 μM decitabine, day 3
# [7] = 31° C., 10 μM decitabine, day 5
# [8] = 31° C., 10 μM decitabine, day 7
# [9] = 31° C., 10 μM decitabine, day 10
# [10] = 34° C., 1 μM decitabine, day 10
# [11] = 34° C., 5 μM decitabine, day 10
# [12] = 34° C., 10 μM decitabine, day 0
# [13] = 34° C., 10 μM decitabine, day 3
# [14] = 34° C., 10 μM decitabine, day 5
# [15] = 34° C., 10 μM decitabine, day 7
compound,measurement,setting,value
"Nc1ncn([C@H]2C[C@H](O)[C@@H](CO)O2)c(=O)n1 [decitabine, 5-aza-2′-deoxycytidine]","viability at 3 day, 1 μM","[1]; 1 μM decitabine, day 3",93.6%
same,"viability at 5 day, 1 μM","[1]; 1 μM decitabine, day 5",91.5%
same,"viability at 7 day, 1 μM","[1]; 1 μM decitabine, day 7",55%
same,"viability at 10 day, 1 μM","[1]; 1 μM decitabine, day 10",21.4%
same,"viability at 0 day, 5 μM","[1]; 5 μM decitabine, day 0",96.1%
same,"viability at 3 day, 5 μM","[1]; 5 μM decitabine, day 3",96.1%
same,"viability at 5 day, 5 μM","[1]; 5 μM decitabine, day 5",80.3%
same,"viability at 7 day, 5 μM","[1]; 5 μM decitabine, day 7",62.7%
same,"viability at 10 day, 5 μM","[1]; 5 μM decitabine, day 10",33.3%
same,"viability at 0 day, 10 μM","[1]; 10 μM decitabine, day 0",96.1%
same,"viability at 3 day, 10 μM","[1]; 10 μM decitabine, day 3",93.6%
same,"viability at 5 day, 10 μM","[1]; 10 μM decitabine, day 5",75.3%
same,"viability at 7 day, 10 μM","[1]; 10 μM decitabine, day 7",43.9%
same,Cumulative Viable Cell Density,"[2]; 31° C., 1 μM decitabine, day 0",0 mL⁻¹ day⁻¹
same,Viable Cell Density,"[2]; 31° C., 1 μM decitabine, day 0",1.8e+06 mL⁻¹
same,Cumulative Viable Cell Density,"[2]; 31° C., 1 μM decitabine, day 3",8.3e+06 mL⁻¹ day⁻¹
same,Viable Cell Density,"[2]; 31° C., 1 μM decitabine, day 3",3.7e+06 mL⁻¹
same,Cumulative Viable Cell Density,"[2]; 31° C., 1 μM decitabine, day 5",1.7e+07 mL⁻¹ day⁻¹
same,Viable Cell Density,"[2]; 31° C., 1 μM decitabine, day 5",5e+06 mL⁻¹
same,Cumulative Viable Cell Density,"[2]; 31° C., 1 μM decitabine, day 7",2.77e+07 mL⁻¹ day⁻¹
same,Viable Cell Density,"[2]; 31° C., 1 μM decitabine, day 7",5.7e+06 mL⁻¹
same,Cumulative Viable Cell Density,[2]; [3],4.38e+07 mL⁻¹ day⁻¹
same,Viable Cell Density,[2]; [3],5.1e+06 mL⁻¹
same,Cumulative Viable Cell Density,"[2]; 31° C., 5 μM decitabine, day 0",0 mL⁻¹ day⁻¹
same,Viable Cell Density,"[2]; 31° C., 5 μM decitabine, day 0",1.8e+06 mL⁻¹
same,Cumulative Viable Cell Density,"[2]; 31° C., 5 μM decitabine, day 3",8.5e+06 mL⁻¹ day⁻¹
same,Viable Cell Density,"[2]; 31° C., 5 μM decitabine, day 3",3.8e+06 mL⁻¹
same,Cumulative Viable Cell Density,"[2]; 31° C., 5 μM decitabine, day 5",1.57e+07 mL⁻¹ day⁻¹
same,Viable Cell Density,"[2]; 31° C., 5 μM decitabine, day 5",3.5e+06 mL⁻¹
same,Cumulative Viable Cell Density,"[2]; 31° C., 5 μM decitabine, day 7",2.28e+07 mL⁻¹ day⁻¹
same,Viable Cell Density,"[2]; 31° C., 5 μM decitabine, day 7",3.6e+06 mL⁻¹
same,Cumulative Viable Cell Density,[2]; [4],4e+07 mL⁻¹ day⁻¹
same,Viable Cell Density,[2]; [4],7.8e+06 mL⁻¹
same,Cumulative Viable Cell Density,[2]; [5],0 mL⁻¹ day⁻¹
same,Viable Cell Density,[2]; [5],1.8e+06 mL⁻¹
same,Cumulative Viable Cell Density,[2]; [6],7.4e+06 mL⁻¹ day⁻¹
same,Viable Cell Density,[2]; [6],3.1e+06 mL⁻¹
same,Cumulative Viable Cell Density,[2]; [7],1.44e+07 mL⁻¹ day⁻¹
same,Viable Cell Density,[2]; [7],3.9e+06 mL⁻¹
same,Cumulative Viable Cell Density,[2]; [8],2.15e+07 mL⁻¹ day⁻¹
same,Viable Cell Density,[2]; [8],3.3e+06 mL⁻¹
same,Cumulative Viable Cell Density,[2]; [9],3.18e+07 mL⁻¹ day⁻¹
same,Viable Cell Density,[2]; [9],3.6e+06 mL⁻¹
same,Cumulative Viable Cell Density,"[2]; 34° C., 1 μM decitabine, day 0",0 mL⁻¹ day⁻¹
same,Viable Cell Density,"[2]; 34° C., 1 μM decitabine, day 0",1.8e+06 mL⁻¹
same,Cumulative Viable Cell Density,"[2]; 34° C., 1 μM decitabine, day 3",1.14e+07 mL⁻¹ day⁻¹
same,Viable Cell Density,"[2]; 34° C., 1 μM decitabine, day 3",5.7e+06 mL⁻¹
same,Cumulative Viable Cell Density,"[2]; 34° C., 1 μM decitabine, day 5",2.55e+07 mL⁻¹ day⁻¹
same,Viable Cell Density,"[2]; 34° C., 1 μM decitabine, day 5",8.4e+06 mL⁻¹
same,Cumulative Viable Cell Density,"[2]; 34° C., 1 μM decitabine, day 7",4.15e+07 mL⁻¹ day⁻¹
same,Viable Cell Density,"[2]; 34° C., 1 μM decitabine, day 7",7.6e+06 mL⁻¹
same,Cumulative Viable Cell Density,[2]; [10],5.69e+07 mL⁻¹ day⁻¹
same,Viable Cell Density,[2]; [10],2.7e+06 mL⁻¹
same,Cumulative Viable Cell Density,"[2]; 34° C., 5 μM decitabine, day 0",0 mL⁻¹ day⁻¹
same,Viable Cell Density,"[2]; 34° C., 5 μM decitabine, day 0",1.8e+06 mL⁻¹
same,Cumulative Viable Cell Density,"[2]; 34° C., 5 μM decitabine, day 3",1.16e+07 mL⁻¹ day⁻¹
same,Viable Cell Density,"[2]; 34° C., 5 μM decitabine, day 3",5.9e+06 mL⁻¹
same,Cumulative Viable Cell Density,"[2]; 34° C., 5 μM decitabine, day 5",2.47e+07 mL⁻¹ day⁻¹
same,Viable Cell Density,"[2]; 34° C., 5 μM decitabine, day 5",7.2e+06 mL⁻¹
same,Cumulative Viable Cell Density,"[2]; 34° C., 5 μM decitabine, day 7",3.81e+07 mL⁻¹ day⁻¹
same,Viable Cell Density,"[2]; 34° C., 5 μM decitabine, day 7",6.3e+06 mL⁻¹
same,Cumulative Viable Cell Density,[2]; [11],5.27e+07 mL⁻¹ day⁻¹
same,Viable Cell Density,[2]; [11],3.4e+06 mL⁻¹
same,Cumulative Viable Cell Density,[2]; [12],0 mL⁻¹ day⁻¹
same,Viable Cell Density,[2]; [12],1.8e+06 mL⁻¹
same,Cumulative Viable Cell Density,[2]; [13],9.8e+06 mL⁻¹ day⁻¹
same,Viable Cell Density,[2]; [13],4.7e+06 mL⁻¹
same,Cumulative Viable Cell Density,[2]; [14],1.93e+07 mL⁻¹ day⁻¹
same,Viable Cell Density,[2]; [14],4.8e+06 mL⁻¹
same,Cumulative Viable Cell Density,[2]; [15],2.73e+07 mL⁻¹ day⁻¹
same,Viable Cell Density,[2]; [15],3.2e+06 mL⁻¹
